Assay results from patent US20100184769A1, “PDE INHIBITORS FOR THE TREATMENT OF HEARING IMPAIRMENT” (BAYER SCHERING PHARMA AKTIENGESELLSCHAFT, priority 2007, published 2010).

Test system: acustic trauma and threshold levels of rats
Assay: Acoustic trauma (AT) in rats, hearing thresholds by auditory brainstem responses (ABR)
Assay type: in vivo, female Sprague Dawley Rats
Settings: 10 mg/kg p.o. twice daily
Experimental: All animal experiments were performed due to the “German Law for the Protection of Laboratory animals” and were conducted due to the approved guidelines for Animal Health and Welfare. Experiments were performed with female Sprague Dawley Rats with a body weight between 300-400 g. For induction of acoustic trauma (AT) animals were kept under anesthezia (Ketamine, Xylazin, Rompun i.p. injection) and exposed to band noise or pure tones using a calibrated loudspeaker inside a reverberating chamber. The sound consists of a continuous 10 kHz pure-tone presented at 115 dB SPL. All acoustic stimuli were calibrated at the head level of the animal. Rats were treated with either Vardenafil [10 mg/kg/ p.o. dissolved in Ethanol/Solutol/Water (10/40/50) with an application volume of 5 ml/kg] or Placebo [Ethanol/Solutol/Water (10/40/50) with an application volume of 5 ml/kg] twice daily. The first treatment with Vardenafil or Placebo was i.e. 1 h prior to AT. The development and progression/remission of hearing impairment was detected by measuring the hearing thresholds by recordings of auditory brainstem responses (ABR). The threshold was determined by the lowest sound pressure that produced ARBs distinct from noise level. Threshold level analysis was performed prior to the acustic trauma (AT) (Measurement A in table 1), 3-5 hours post AT (Measurement B in table 1), once daily, from day 1 to day 7 post AT (Measurement C to I in table 1) and finally 3 weeks post AT (Measurement J in table 1).

## CCCc1nc(C)c2c(=O)[nH]c(-c3cc(S(=O)(=O)N4CCN(CC)CC4)ccc3OCC)nn12 [Vardenafil, 2-(2-Ethoxy-5-(4-ethylpiperazin-1-yl-1-sulfonyl)phenyl)-5-methyl-7-propyl-3H-imidazo (5,1-f) (1,2,4)triazin-4-one]
3-5 hours post AT, first treatment 1 h prior to AT
  Hearing Threshold, Measurement B: 38.6 dB SPL
3 weeks post AT
  Hearing Threshold, Measurement J: 8.1 dB SPL
Day 1 post AT
  Hearing Threshold, Measurement C: 28.3 dB SPL
Day 2 post AT
  Hearing Threshold, Measurement D: 19.5 dB SPL
Day 3 post AT
  Hearing Threshold, Measurement E: 16.5 dB SPL
Day 4 post AT
  Hearing Threshold, Measurement F: 14.3 dB SPL
Day 5 post AT
  Hearing Threshold, Measurement G: 12.4 dB SPL
Day 6 post AT
  Hearing Threshold, Measurement H: 11.2 dB SPL
Day 7 post AT
  Hearing Threshold, Measurement I: 10.9 dB SPL
Prior to acustic trauma (AT)
  Hearing Threshold, Measurement A: 5.9 dB SPL
